Assay results: ChEMBL document CHEMBL1134554, “Design, synthesis, and structure-activity relationships of macrocyclic hydroxamic acids that inhibit tumor necrosis factor alpha release in vitro and in vivo” (J Med Chem, 2001)

target: Disintegrin and metalloproteinase domain-containing protein 17 (Homo sapiens, UniProt P78536)
Sequence (P78536 whole entry, the tested form may be a part): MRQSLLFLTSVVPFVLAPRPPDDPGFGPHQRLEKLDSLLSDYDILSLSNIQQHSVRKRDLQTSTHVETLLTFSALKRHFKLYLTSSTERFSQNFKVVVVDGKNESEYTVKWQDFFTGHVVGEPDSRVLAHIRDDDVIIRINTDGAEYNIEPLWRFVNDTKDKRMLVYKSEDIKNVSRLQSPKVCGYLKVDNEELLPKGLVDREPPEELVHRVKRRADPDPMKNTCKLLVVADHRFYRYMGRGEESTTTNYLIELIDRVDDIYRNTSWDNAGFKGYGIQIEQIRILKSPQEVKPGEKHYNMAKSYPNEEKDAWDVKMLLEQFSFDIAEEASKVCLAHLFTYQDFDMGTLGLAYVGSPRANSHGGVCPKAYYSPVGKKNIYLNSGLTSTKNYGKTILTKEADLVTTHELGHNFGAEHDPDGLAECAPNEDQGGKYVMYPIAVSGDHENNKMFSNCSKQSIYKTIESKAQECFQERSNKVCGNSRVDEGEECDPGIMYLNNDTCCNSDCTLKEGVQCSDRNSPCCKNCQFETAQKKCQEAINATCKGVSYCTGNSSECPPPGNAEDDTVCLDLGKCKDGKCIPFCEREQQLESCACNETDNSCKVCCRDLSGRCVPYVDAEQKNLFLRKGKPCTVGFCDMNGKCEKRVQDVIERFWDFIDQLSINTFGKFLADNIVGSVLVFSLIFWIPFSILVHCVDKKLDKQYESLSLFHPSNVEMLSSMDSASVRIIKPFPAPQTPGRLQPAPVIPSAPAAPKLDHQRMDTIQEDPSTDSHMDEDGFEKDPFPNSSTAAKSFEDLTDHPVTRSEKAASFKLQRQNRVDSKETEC
Description: Inhibition of LPS-stimulated TNF-alpha release in human whole blood

Compound	IC50
CC(C)C[C@H]1C(=O)N[C@H](C(=O)NC[C@@H]2CCCO2)CCCCNC(=O)OCCC[C@@H]1C(=O)NO	260 nM
CC(C)C[C@H]1C(=O)N[C@H](C(=O)NCC(=O)Nc2cccc3c2Cc2ccccc2-3)Cc2ccc(cc2)OCCC[C@@H]1C(=O)NO	930 nM
CNC(=O)[C@@H](CC(C)C)NC(=O)[C@@H]1CCCCNC(=O)OCCC[C@H](C(=O)NO)[C@@H](CC(C)C)C(=O)N1	100 nM
CNC(=O)[C@@H](COC(C)(C)C)NC(=O)[C@@H]1Cc2ccc(cc2)OCCC[C@H](C(=O)NO)[C@@H](CC(C)C)C(=O)N1	950 nM
CC(C)C[C@H]1C(=O)N[C@H](C(=O)Nc2cccnc2)CCCCN(C)C(=O)OCCC[C@@H]1C(=O)NO	500 nM
CNC(=O)[C@@H](C)NC(=O)[C@@H]1Cc2ccc(cc2)OCCC[C@H](C(=O)NO)[C@@H](CC(C)C)C(=O)N1	700 nM
COc1ccc2c(CCNC(=O)[C@@H]3CCCCNC(=O)OCCC[C@H](C(=O)NO)[C@@H](CC(C)C)C(=O)N3)c[nH]c2c1	94 nM
CC(C)C[C@H]1C(=O)N[C@H](C(=O)NCC(=O)Nc2ccc(F)cc2F)Cc2ccc(cc2)OCCC[C@@H]1C(=O)NO	700 nM
CNC(=O)[C@H](NC(=O)[C@@H]1Cc2ccc(cc2)OCCC[C@H](C(=O)NO)[C@@H](CC(C)C)C(=O)N1)C(C)C	1510 nM
CNC(=O)[C@@H]1Cc2ccc(cc2)OCCC[C@H](C(=O)NO)[C@@H](CC(C)C)C(=O)N1	1200 nM
COC(=O)c1csc(NC(=O)[C@@H]2CCCCNC(=O)OCCC[C@H](C(=O)NO)[C@@H](CC(C)C)C(=O)N2)n1	83 nM
CC(C)C[C@H]1C(=O)N[C@H](C(=O)NCC(F)(F)F)Cc2ccc(cc2)OCCC[C@@H]1C(=O)NO	680 nM
CNC(=O)[C@@H]1CCCCNC(=O)CO[C@H](C(=O)NO)[C@@H](CC(C)C)C(=O)N1	6500 nM
CNC(=O)[C@@H](CCCCN)NC(=O)[C@@H]1CCCCNC(=O)OCCC[C@H](C(=O)NO)[C@@H](CC(C)C)C(=O)N1	690 nM
CC(C)C[C@H]1C(=O)N[C@H](C(=O)N[C@H]2c3ccccc3C[C@H]2O)CCCCNC(=O)OCCC[C@@H]1C(=O)NO	400 nM
CNC(=O)[C@@H]1CCCCN(C(=O)OC(C)(C)C)CCC[C@H](C(=O)NO)[C@@H](CC(C)C)C(=O)N1	1400 nM

Compound	IC50
CCOC(=O)N1CCN(C(=O)CNC(=O)[C@@H]2CCCCN(C)C(=O)OCCC[C@H](C(=O)NO)[C@@H](CC(C)C)C(=O)N2)CC1	600 nM
CNC(=O)[C@H](C)NC(=O)[C@@H]1Cc2ccc(cc2)OCCC[C@H](C(=O)NO)[C@@H](CC(C)C)C(=O)N1	4490 nM
CCCCCC[C@H]1C(=O)N[C@H](C(=O)NCc2ccccc2)Cc2ccc(cc2)OCCC[C@@H]1C(=O)NO	2200 nM
CC(C)C[C@H]1C(=O)N[C@H](C(=O)NC[C@H]2CCCO2)CCCCNC(=O)OCCC[C@@H]1C(=O)NO	980 nM
CC(C)C[C@H]1C(=O)N[C@H](C(=O)NCc2ccccn2)CCCCNC(=O)OCCC[C@@H]1C(=O)NO	700 nM
CC(C)C[C@H]1C(=O)N[C@H](C(=O)NCC(F)(F)F)CCCCNC(=O)OCCC[C@@H]1C(=O)NO	2000 nM
CC(C)C[C@H]1C(=O)N[C@H](C(=O)NCc2ccncc2)CCCCNC(=O)OCCC[C@@H]1C(=O)NO	490 nM
Cc1ccc2[nH]cc(CCNC(=O)[C@@H]3CCCCNC(=O)OCCC[C@H](C(=O)NO)[C@@H](CC(C)C)C(=O)N3)c2c1	1170 nM
CC(C)C[C@H]1C(=O)N[C@H](C(=O)NCC(=O)N2CCCC2)CCCCN(C)C(=O)OCCC[C@@H]1C(=O)NO	400 nM
CC(C)C[C@H]1C(=O)N[C@H](C(=O)NCc2cccnc2)CCCCNC(=O)OCCC[C@@H]1C(=O)NO	500 nM
CNC(=O)[C@@H](CCCCN)NC(=O)[C@@H]1Cc2ccc(cc2)OCCC[C@H](C(=O)NO)[C@@H](CC(C)C)C(=O)N1	830 nM
CC(C)C[C@H]1C(=O)N[C@H](C(=O)NC(C)C)Cc2ccc(cc2)OCCC[C@@H]1C(=O)NO	700 nM
CC(C)C[C@H]1C(=O)N[C@H](C(=O)NCC(=O)N2CCCCC2)Cc2ccc(cc2)OCCC[C@@H]1C(=O)NO	140 nM
CC(C)C[C@H]1C(=O)N[C@H](C(=O)NCC(=O)N2CCC(C(=O)O)CC2)CCCCNC(=O)OCCC[C@@H]1C(=O)NO	220 nM
CNC(=O)[C@@H]1CCCCN(S(=O)(=O)c2ccccc2)CCC[C@H](C(=O)NO)[C@@H](CC(C)C)C(=O)N1	1300 nM
CNC(=O)[C@H](NC(=O)[C@@H]1CCCCNC(=O)OCCC[C@H](C(=O)NO)[C@@H](CC(C)C)C(=O)N1)C(C)(C)C	1200 nM

Further compounds by falling IC50, results first:

IC50	Compound
550 nM	CCCCCC[C@H]1C(=O)N[C@H](C(=O)NCC(=O)NC)Cc2ccc(cc2)OCCC[C@@H]1C(=O)NO
420 nM	CNC(=O)CNC(=O)[C@@H]1CCCCN(C)C(=O)OCCC[C@H](C(=O)NO)[C@@H](CC(C)C)C(=O)N1
300 nM	Cc1csc(NC(=O)[C@@H]2CCCCN(C)C(=O)OCCC[C@H](C(=O)NO)[C@@H](CC(C)C)C(=O)N2)n1
300 nM	CC(C)C[C@H]1C(=O)N[C@H](C(=O)NCC(=O)N2CCC(O)CC2)CCCCN(C)C(=O)OCCC[C@@H]1C(=O)NO
280 nM	CC(C)C[C@H]1C(=O)N[C@H](C(=O)NCC(=O)N2CCC(O)CC2)CCCCNC(=O)OCCC[C@@H]1C(=O)NO
270 nM	CC(C)C[C@H]1C(=O)N[C@H](C(=O)NCC(=O)N2CC(C)CC(C)C2)Cc2ccc(cc2)OCCC[C@@H]1C(=O)NO (stereo partly drawn)
240 nM	CC(C)C[C@H]1C(=O)N[C@H](C(=O)NCC(=O)NCC(F)(F)F)Cc2ccc(cc2)OCCC[C@@H]1C(=O)NO
200 nM	CC(C)C[C@H]1C(=O)N[C@H](C(=O)NCC(=O)Nc2ccccn2)CCCCN(C)C(=O)OCCC[C@@H]1C(=O)NO
200 nM	CC(C)C[C@H]1C(=O)N[C@H](C(=O)NCC(=O)N2CCOCC2)CCCCN(C)C(=O)OCCC[C@@H]1C(=O)NO
200 nM	CC(C)C[C@H]1C(=O)N[C@H](C(=O)NCC(=O)N2CCC(O)CC2)Cc2ccc(cc2)OCCC[C@@H]1C(=O)NO
180 nM	CC(C)C[C@H]1C(=O)N[C@H](C(=O)NCC(=O)N2CCC(N3CCCCC3)CC2)CCCCNC(=O)OCCC[C@@H]1C(=O)NO
160 nM	CC(C)C[C@H]1C(=O)N[C@H](C(=O)NCC(=O)N2CCN(C)CC2)CCCCNC(=O)OCCC[C@@H]1C(=O)NO
130 nM	CCOC(=O)N1CCN(C(=O)CNC(=O)[C@@H]2CCCCNC(=O)OCCC[C@H](C(=O)NO)[C@@H](CC(C)C)C(=O)N2)CC1
130 nM	CCOC(=O)N1CCC(NC(=O)[C@@H]2CCCCNC(=O)OCCC[C@H](C(=O)NO)[C@@H](CC(C)C)C(=O)N2)CC1
130 nM	CC(C)C[C@H]1C(=O)N[C@H](C(=O)NCCc2c[nH]c3ccc(F)cc23)CCCCNC(=O)OCCC[C@@H]1C(=O)NO
120 nM	CC(C)C[C@H]1C(=O)N[C@H](C(=O)Nc2nc(CC(=O)N3CCOCC3)cs2)CCCCNC(=O)OCCC[C@@H]1C(=O)NO
120 nM	CNC(=O)CNC(=O)[C@@H]1CCCCNC(=O)OCCC[C@H](C(=O)NO)[C@@H](CC(C)C)C(=O)N1
100 nM	CC(C)C[C@H]1C(=O)N[C@H](C(=O)N[C@H](CO)C(=O)N2CCOCC2)CCCCNC(=O)OCCC[C@@H]1C(=O)NO
85 nM	CC(C)C[C@H]1C(=O)N[C@H](C(=O)NCCc2ccccc2O)CCCCNC(=O)OCCC[C@@H]1C(=O)NO
70 nM	CC(C)C[C@H]1C(=O)N[C@H](C(=O)NCC(=O)N2CCN(c3ccccn3)CC2)CCCCNC(=O)OCCC[C@@H]1C(=O)NO
70 nM	CC(C)C[C@H]1C(=O)N[C@H](C(=O)NCC(=O)N2CCN(c3ccccc3)CC2)CCCCNC(=O)OCCC[C@@H]1C(=O)NO
